The values below come from patent publication US20080107603A1, “Neuroprotectant methods, compositions, and screening methods thereof” (priority 2002, published 2008).

Data set [1] has as its system retinal neurons in the retinal ganglion cell layer. Put plainly: NMDA retinal model (intravitreal NMDA, cell counts in retinal wholemounts). Format: in vivo, Sprague-Dawley rats. As to the method:
Young adult female Sprague-Dawley rats were used in the present experiments. The animals were supplied by Harlan, England and maintained in the Comparative Biology Unit at Charing Cross Hospital Campus, Imperial College. Animal procedures used were in accordance to regulations of Home Office, UK. The animals were divided into four groups. The first group consists of 6 normal rats that received no treatment. A further 9 animals were anesthetized with. Hypnorm™ (0.02 mg of fentanyl citrate and 0.54 mg fluanisone/100 g body weight) and Hypnovel™ (0.27 mg midazolam/100 g body weight) before they received unilateral intravitreal injection of 5 μl of 4 mM NMDA to the vitreous body of the left eyes, with the uninjected right eyes served as controls. Six of the experimental animals injected with NMDA received an additional intraperitoneal injection of L-ergothioneine 0.2 ml of 70 mg/ml (n=3), or phosphate buffer saline (PBS) as vehicle control 24 h and 30 min before injection of NMDA.
Further intraperitoneal injection of L-ergothioneine, or PBS was performed at 1 h, 24 h, 48 h and 72 h time points, and 3 injections per week for another three weeks. Six weeks after injection of NMDA, all animals were anaesthetized deeply again and perfused with physiological saline followed by 4% paraformaldehyde in phosphate buffer (pH 7.4). The eyeballs were collected in the same fixative and post-fixed for another half an hour before the retinas were dissected out in PBS. For each retina, four radial cuts were made before the retinas were flatly mounted onto gelatin-coated slides, and air-dried slowly in a moist chamber for 2-3 days.
The retinal whole-mounts were then stained for cresyl violet and cover slipped. Analysis was performed under a Wild microscope equipped with a camera lucida drawing tube. The number of retinal neurons in the retinal ganglion cell layer was counted and cell sizes measured at a magnification of 300× and in an area of 150×150 μm in the central, intermediate and peripheral parts of the four retinal quadrants. The neurons counted were divided into two groups with somata smaller than 6 μm, or equal to or larger than 6 μm in diameter. The majority of larger neurons are retinal ganglion cells while smaller somata are primarily non-ganglion cells or displaced amacrine cells (Perry (1981) Neuroscience 6:931-944). The numbers of cells were: counted in a total of 12 fields of individual retinas an analyzed statistically. The data is expressed as mean±S.E.M. Differences between values were compared by one-way analysis of variance (ANOVA).

A further data set concerns p65. Put plainly: Immunocytochemistry, nuclear translocation of p65. The conditions noted are these: Aβ25-35 for 1 h. Format: cell-based, Rat.
In data set [2] the test system is striatal dopamine content. The experiment in a line: 6-OHDA lesion rat model, striatal dopamine content. Format: in vivo, Sprague-Dawley rats. The conditions noted are these: treatment before 6-OHDA lesioning. As to the method: Male Sprague-Dawley rats with starting weights 225±25 g, were housed in groups of 3 with free access to food and water, under controlled temperature (21° C.±1° C.) and a 12 hour light/dark cycle (light on 07.00 hrs). All scientific procedures were carried out with the approval of the Home Office, U.K. Rats were administered, by gavage, 70 mg/kg of ergothioneine or vehicle (sterile distilled water) daily for 4 days (n=6 per group). On the 4th day, 1 hr after L-ergothioneine or vehicle administration, rats were anaesthetized with small animal Immobilon® (0.04 ml/rat, i.m.), and 6-OHDA (5 μg dissolved in 4 μl of 0.1% ascorbic acid/saline solution) was injected onto median forebrain bundle (stereotactic co-ordinates: 2.2 mm anterior, +1.5 lateral from bregma and −7.9 ventral to dura with ear bars 5 mm below incisor bars (Datla et al. (2001) Neuroreport 12:3871, which reference is herein specifically incorporated by reference in its entirety). One week after 6-OHDA lesioning, rats were killed by cervical dislocation and the brains were dissected out immediately. A coronal section was made at the level of hypothalamus and fore brain, and hind brain parts were separated. […] Images of TH positive cells (TH+ cells) were captured by a Xillix CCD digital camera and counted automatically (Image Proplus, Datacell, U.K.). […]

The conditions of data set [3]: Guinea Pig; cited from earlier work.
For data set [4] the following is noted: Cat; cited from earlier work.
For data set [5] the following is noted: Dog; cited from earlier work.
The conditions of data set [6]: Ox; cited from earlier work.
The mark [7] stands for this setting: NMDA-injected retina, L-ergothioneine i.p. 0.2 ml of 70 mg/ml, 6 weeks after NMDA.
Where [8] appears, read: uninjected control eyes of L-ergothioneine treated animals.

Where two headings read alike, the source gives them in different places.

On to `C[N+](C)(C)[C@@H](Cc1c[nH]c(=S)[nH]1)C(=O)[O-]` [L-ergothioneine, 2-mercaptohistidine trimethylbetaine], for which, in data set [1] (NMDA retinal model, versus PBS), the neuroprotective effect entry is “significant neuroprotective effect”. Moreover, the “loss of ganglion cells” value in data set [1] (setting [7]) was determined as 44%; in data set [1] (setting [8]), 7%. In addition, the “loss of small or non-ganglion cells” value in data set [1] (setting [7]) was found to be 31%. In data set [1] (setting [8]), the “loss of non-ganglion cells” value is recorded as 4%. In the data set with p65, the “Aβ25-35-induced nuclear translocation of p65” value is “inhibitory effect”. For the same compound, the “loss of striatal dopamine content” value in data set [2] is “markedly reduced the loss”. For the same compound, the “L-Ergothioneine Concentration (mg/100 ml blood)” value is 1-4 mg/100 ml blood in data set [3], 0.5-2 mg/100 ml blood in data set [4], 3-6 mg/100 ml blood in data set [5] and 0.5-2 mg/100 ml blood in data set [6].
